Experimental data taken from patent US20260007601A1, “IONIZABLE CATIONIC LIPID COMPOUND AND COMPOSITION FOR DELIVERING NUCLEIC ACID AND USE THEREOF” (BEIJING YOUCAREKECHUANG PHARMACEUTICAL TECHNOLOGY CO., LTD., priority 2023, published 2026).
“And” between values parts separate entries of the source, which are not always exact repeats. Equal entries are not always repeated.

How the values were obtained:
[1] = Particle size and polydispersity index (PDI) of nanolipid particles, dynamic light scattering; format: physicochemical; settings: LNP formulation prepared from the named cationic lipid, 25° C
Method: The particle size and polydispersity index (PDI) were determined by dynamic light scattering method using a Malvern laser particle size analyzer. 10 μL of liposome solution was diluted to 1 mL with RNase-free deionized water and added to a sample pool. Each sample was measured three times. The measurement conditions were: 90° scattering angle, 25° C.

[2] = Encapsulation rate, drug loading concentration and total RNA concentration detection (RiboGreen); format: physicochemical
293T cells = assay: Cell survival rate assay (CCK-8); format: cell-based
Procedure, shortened: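 293T cells seeded at 10,000 per well and grown overnight, then exposed for 24 h to LNPs (cationic/neutral/structured/PEG lipids 49:10:39.5:1.5) carrying 1.5 μg Fluc-mRNA, or Lipofectamine 3000. Viability read by CCK-8, 1 h incubation, absorbance at 450 nm.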

female BALB/C mice = assay: Mouse in vivo imaging of Fluc-mRNA LNP formulations; parameters: average radiation intensity (mRNA expression): unit not given here; settings: for average radiation intensity (mRNA expression): 10 μg Fluc-mRNA LNP intramuscularly
Procedure, shortened: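 Female BALB/C mice (4–6 weeks, 17–19 g) received LNP carrying 10 μg Fluc-mRNA intramuscularly. Imaging substrate given intraperitoneally at 6 h, 24 h, 48 h and 7 d; after 5 min free movement, average radiance read by IVIS Spectrum imaging.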

[3] = LNP formulation of the named lipid

CCCCCCCCCCCOC(=O)CCCCCN(CCCCCCCC(=O)OCC(CCCCCCCC)CCCCCCCC)CCN(C)CCO [YK-202]
PDI [1]: 23.4% | Particle size [1]: 173 nm | drug loading concentration, times that of ALC-0315 [2]: 1.42 times | drug loading concentration, times that of HHMA [2]: 1.21 times | drug loading concentration, times that of SM-102 [2]: 1.46 times | drug loading concentration, times that of YK-009 [2]: 1.38 times | drug loading concentration, times that of compound 21 [2]: 1.64 times | drug loading concentration, times that of compound 23 [2]: 1.79 times | total RNA concentration, times that of ALC-0315 [2]: 1.16 times | total RNA concentration, times that of HHMA [2]: 1.14 times | total RNA concentration, times that of SM-102 [2]: 1.22 times | total RNA concentration, times that of YK-009 [2]: 1.11 times | total RNA concentration, times that of compound 21 [2]: 1.40 times | total RNA concentration, times that of compound 23 [2]: 1.32 times | Drug loading concentration [2, 3]: 37.08 µg/mL | Encapsulation rate [2, 3]: 86.3% | Total RNA concentration [2, 3]: 42.98 µg/mL | encapsulation rate higher than that of ALC-0315 ([2]; difference of rates): 23.50% | encapsulation rate higher than that of HHMA ([2]; difference of rates): 25.80% | encapsulation rate higher than that of SM-102 ([2]; difference of rates): 24.00% | encapsulation rate higher than that of YK-009 ([2]; difference of rates): 23.30% | encapsulation rate higher than that of compound 21 ([2]; difference of rates): 28.50% | encapsulation rate higher than that of compound 23 ([2]; difference of rates): 31.10% | Cell survival rate (293T cells; LNP containing 1.5 μg Fluc-mRNA, 24 hours, CCK-8): 76.81% | cell survival rate higher (cytotoxicity reduced) compared with YK-221 (293T cells; difference of rates): 55% and 55.86% | cell survival rate higher (toxicity lower) than that of YK-204 (293T cells; difference of rates): 34.24% | cell survival rate higher (toxicity lower) than that of YK-225 (293T cells; difference of rates): 33.40% | cell survival rate higher than that of ALC-0315 (293T cells; difference of rates): 26.85% | cell survival rate higher than that of HHMA (293T cells; difference of rates): 11.25% | cell survival rate higher than that of Lipofectamine 3000 (293T cells; difference of rates): 53.76% | cell survival rate higher than that of SM-102 (293T cells; difference of rates): 8.26% | cell survival rate higher than that of YK-203 (293T cells; difference of rates): 41.25% | cell survival rate higher than that of YK-205 (293T cells; difference of rates): 17.89% | cell survival rate higher than that of YK-208 (293T cells; difference of rates): 30.13% | cell survival rate higher than that of YK-210 (293T cells; difference of rates): 38.43% | cell survival rate higher than that of YK-211 (293T cells; difference of rates): 24.51% | cell survival rate higher than that of YK-212 (293T cells; difference of rates): 41.55% | cell survival rate higher than that of YK-213 (293T cells; difference of rates): 35.37% | cell survival rate higher than that of YK-214 (293T cells; difference of rates): 51.23% and 50% | cell survival rate higher than that of YK-215 (293T cells; difference of rates): 32.22% | cell survival rate higher than that of YK-216 (293T cells; difference of rates): 31.01% | cell survival rate higher than that of YK-217 (293T cells; difference of rates): 34.54% | cell survival rate higher than that of YK-219 (293T cells; difference of rates): 18.20% | cell survival rate higher than that of YK-220 (293T cells; difference of rates): 17.82% | cell survival rate higher than that of YK-222 (293T cells; difference of rates): 43.06% | cell survival rate higher than that of YK-223 (293T cells; difference of rates): 40.17% | cell survival rate higher than that of YK-224 (293T cells; difference of rates): 53.34% | cell survival rate higher than that of YK-226 (293T cells; difference of rates): 48.91% | cell survival rate higher than that of compound 21 (293T cells; difference of rates): 7.79% | cell survival rate higher than that of compound 23 (293T cells; difference of rates): 6.71% | average radiation intensity, times that of ALC-0315 (female BALB/C mice; 6 h): 3.48 times | average radiation intensity, times that of HHMA (female BALB/C mice; 6 h): 4.59 times | average radiation intensity, times that of SM-102 (female BALB/C mice; 6 h): 4.32 times | average radiation intensity, times that of compound 21 (female BALB/C mice; 6 h): 4.89 times | average radiation intensity, times that of compound 23 (female BALB/C mice; 6 h): 4.94 times | mRNA expression level, times that of YK-204 (female BALB/C mice; 6 h): 83.29 times | mRNA expression level, times that of YK-223 (female BALB/C mice; 6 h): 283.49 times | average radiation intensity (mRNA expression) (female BALB/C mice; 6 h): 2935500 | expression level, times that of YK-215 (female BALB/C mice; 6 hours): 58.06 times | expression level, times that of YK-217 (female BALB/C mice; 6 hours): 119.40 times | average radiation intensity, times that of ALC-0315 (female BALB/C mice; 24 h): 11.84 times | average radiation intensity, times that of HHMA (female BALB/C mice; 24 h): 19.69 times | average radiation intensity, times that of SM-102 (female BALB/C mice; 24 h): 18.64 times | average radiation intensity, times that of compound 21 (female BALB/C mice; 24 h): 19.99 times | average radiation intensity, times that of compound 23 (female BALB/C mice; 24 h): 19.47 times | mRNA expression level, times that of YK-204 (female BALB/C mice; 24 h): 412.78 times | mRNA expression level, times that of YK-223 (female BALB/C mice; 24 h): 1208.76 times | average radiation intensity (mRNA expression) (female BALB/C mice; 24 h): 2158840 | expression level, times that of YK-215 (female BALB/C mice; 24 hours): 316.78 times | expression level, times that of YK-217 (female BALB/C mice; 24 hours): 814.66 times | average radiation intensity, times that of ALC-0315 (female BALB/C mice; 48 h): 19.80 times | average radiation intensity, times that of HHMA (female BALB/C mice; 48 h): 25.64 times | average radiation intensity, times that of SM-102 (female BALB/C mice; 48 h): 24.71 times | average radiation intensity, times that of compound 21 (female BALB/C mice; 48 h): 25.15 times | average radiation intensity, times that of compound 23 (female BALB/C mice; 48 h): 23.54 times | mRNA expression level, times that of YK-204 (female BALB/C mice; 48 h): 309.43 times | mRNA expression level, times that of YK-223 (female BALB/C mice; 48 h): 1113.57 times | average radiation intensity (mRNA expression) (female BALB/C mice; 48 h): 755000 | expression level, times that of YK-215 (female BALB/C mice; 48 hours): 207.42 times | expression level, times that of YK-217 (female BALB/C mice; 48 hours): 737.30 times | average radiation intensity, times that of ALC-0315 (female BALB/C mice; 7 d): 5.09 times | average radiation intensity, times that of HHMA (female BALB/C mice; 7 d): 6.31 times | average radiation intensity, times that of SM-102 (female BALB/C mice; 7 d): 5.68 times | average radiation intensity, times that of compound 21 (female BALB/C mice; 7 d): 5.49 times | average radiation intensity, times that of compound 23 (female BALB/C mice; 7 d): 5.75 times | expression level, times that of YK-215 (female BALB/C mice; 7 d): 32.87 times | expression level, times that of YK-217 (female BALB/C mice; 7 d): 64.10 times | mRNA expression level, times that of YK-204 (female BALB/C mice; 7 d): 44.46 times | mRNA expression level, times that of YK-223 (female BALB/C mice; 7 d): 76.19 times | average radiation intensity (mRNA expression) (female BALB/C mice; 7 d): 33524 | mRNA expression level in mice can reach, times that of SM-102 (female BALB/C mice; time point not stated): 24 times
